Tests used:
Assay in all cases: relative viability (nuclei count vs DMSO), 5 days (fraction); higher = more cells survive
Sulindac + Tozasertib = compound: CC1=C(CC(=O)O)c2cc(F)ccc2/C1=C\c1ccc([S+](C)[O-])cc1 [Sulindac] + Cc1cc(Nc2cc(N3CCN(C)CC3)nc(Sc3ccc(NC(=O)C4CC4)cc3)n2)n[nH]1 [Tozasertib] (partner 0.1 µM)
How it was run: (§1)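 Relative viability was taken as the ratio of nuclei in treated wells to nuclei in vehicle wells. Lung cancer cell lines in 1536-well plates received compounds by pin tool one day after seeding, either one drug alone or a fixed anchor-drug dose plus five library-drug doses (not always all listed) in √10 steps. Nuclei were counted on 4× images after 5 days of treatment, and values are medians of duplicate plates.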

Sulindac + Foretinib = compound: CC1=C(CC(=O)O)c2cc(F)ccc2/C1=C\c1ccc([S+](C)[O-])cc1 [Sulindac] + COc1cc2c(Oc3ccc(NC(=O)C4(C(=O)Nc5ccc(F)cc5)CC4)cc3F)ccnc2cc1OCCCN1CCOCC1 [Foretinib] (partner 0.25 µM)
How it was run: as §1

[1] = compound: O=c1[nH]cc(F)c(=O)[nH]1 [5-Fluorouracil] + COc1cc2c(Oc3ccc(NC(=O)C4(C(=O)Nc5ccc(F)cc5)CC4)cc3F)ccnc2cc1OCCCN1CCOCC1 [Foretinib] (partner 0.25 µM)
How it was run: as §1

Sulindac + Trametinib = compound: CC1=C(CC(=O)O)c2cc(F)ccc2/C1=C\c1ccc([S+](C)[O-])cc1 [Sulindac] + CC(=O)Nc1cccc(-n2c(=O)n(C3CC3)c(=O)c3c(Nc4ccc(I)cc4F)n(C)c(=O)c(C)c32)c1 [Trametinib] (partner 0.02 µM)
How it was run: as §1

| Cell Line | relative viability (Sulindac + Tozasertib; first compound 0.08 µM) | relative viability (Sulindac + Tozasertib; first compound 0.253 µM) | relative viability (Sulindac + Tozasertib; first compound 0.8 µM) | relative viability (Sulindac + Tozasertib; first compound 2.53 µM) | relative viability (Sulindac + Tozasertib; first compound 8 µM) | relative viability (Sulindac + Foretinib; first compound 0.08 µM) | relative viability (Sulindac + Foretinib; first compound 0.253 µM) | relative viability (Sulindac + Foretinib; first compound 0.8 µM) | relative viability (Sulindac + Foretinib; first compound 2.53 µM) | relative viability (Sulindac + Foretinib; first compound 8 µM) | relative viability ([1]; first compound 0.02 µM) | relative viability ([1]; first compound 0.2 µM) | relative viability ([1]; first compound 0.6325 µM) | relative viability ([1]; first compound 2 µM) | relative viability (Sulindac + Trametinib; first compound 0.08 µM) | relative viability (Sulindac + Trametinib; first compound 0.253 µM) | relative viability (Sulindac + Trametinib; first compound 0.8 µM) | relative viability (Sulindac + Trametinib; first compound 2.53 µM) | relative viability (Sulindac + Trametinib; first compound 8 µM) |
| --- | --- | --- | --- | --- | --- | --- | --- | --- | --- | --- | --- | --- | --- | --- | --- | --- | --- | --- | --- |
| ABC-1 | 0.12 | 0.147 | 0.157 | 0.162 | 0.183 | 1.02 | 0.96 | 1.02 | 0.867 | 1.33 | 1.05 | 1.12 | 0.991 | 0.548 |  |  |  |  |  |
| IA-LM |  |  |  |  |  | 1.23 | 1.19 |  | 1.2 | 1.3 | 1.33 | 0.618 | 0.496 | 0.236 |  |  |  |  |  |
| NCI-H441 | 0.763 | 0.773 | 0.593 | 0.725 | 0.667 | 0.992 | 1.15 | 0.86 | 1 | 1.24 | 1.01 | 0.887 | 0.558 | 0.361 | 0.423 | 0.579 | 0.331 | 0.492 | 0.494 |
| NCI-H1915 | 0.505 | 0.451 |  | 0.423 | 0.416 | 1.26 | 1.2 |  | 1.11 | 1.15 | 1.01 | 1.09 | 1.06 | 0.81 | 0.303 | 0.307 | 0.246 | 0.302 | 0.303 |
| LXF-289 | 0.176 | 0.167 | 0.195 | 0.176 | 0.205 | 0.98 | 1.05 | 0.98 | 1.02 | 1.03 | 0.917 | 0.757 | 0.468 | 0.313 | 0.745 | 0.713 | 0.666 | 0.695 | 0.686 |
| HCC-827 | 0.485 | 0.432 | 0.435 | 0.418 | 0.466 | 1.03 | 1.05 | 1.1 | 1.01 | 1.09 | 0.879 | 0.95 | 0.602 | 0.429 | 0.525 | 0.571 | 0.526 | 0.489 | 0.506 |
| EMC-BAC-2 | 0.269 | 0.298 | 0.287 | 0.278 | 0.315 | 0.953 | 1.05 | 0.892 | 1.02 | 1.08 | 1.1 | 1.01 | 1.05 | 0.963 | 1.03 | 0.917 | 0.794 | 0.794 | 0.994 |
| NCI-H647 | 0.35 | 0.364 | 0.481 | 0.566 | 0.448 | 1.25 | 1.2 | 1.05 | 1.25 | 1.28 | 1.25 | 1.32 | 0.997 | 0.796 | 0.577 | 0.591 | 0.358 | 0.472 | 0.61 |
| NCI-H1792 |  |  |  |  |  |  |  |  |  |  |  |  |  |  | 0.425 | 0.393 |  | 0.512 | 0.513 |
| NCI-H2009 | 0.883 | 0.809 | 0.712 | 0.707 | 0.99 | 1.32 | 1.26 | 1.26 | 1.22 | 1.12 | 1.31 | 1.27 | 1.12 | 0.669 | 0.256 | 0.266 | 0.283 | 0.245 | 0.33 |

From the supplement of paper PMC10307832
